Test [1] relates to MOLM-13 human acute myeloid leukemia cells. Nature of the test: Proliferation assay, MOLM-13 (Cell Titre-Glo). It counts as cell-based. As to conditions: MOLM-13, 72-hour exposure, read-out: Inhibition of MOLM-13 cell proliferation. The method, then:
Non-adherent MOLM-13 human acute myeloid leukemia cells (DSMZ ACC 554) were seeded at a density of 5,000 cells/well in a 96-well multititer plate in 100 μL of growth medium supplemented 10% fetal calf serum. After 24 hours, cell viability of one plate (zero-point plate) was determined with the Cell Titre-Glo Luminescent Cell Viability Assay (Promega), while 50 μL of test compound containing medium was added to the wells of the other plates (final concentrations in the range of 0.001-10 μM and DMSO controls; the final concentration of the solvent dimethyl sulfoxide was 0.5%). Cell viability was assessed after 72-hour exposure with the Cell Titre-Glo Luminescent Cell Viability Assay (Promega). IC50 values (inhibitory concentration at 50% of maximal effect) were determined by means of a 4 parameter fit on measurement data which were normalized to vehicle (DMSO) treated cells (=100%) and measurement readings taken immediately before compound exposure (=0%).

In test [2] the test system is A2780, human ovarian carcinoma cells. Description: Proliferation assay, A2780 (crystal violet). Type of test: cell-based. As to conditions: 96 h, A2780, 4 days, read-out: Inhibition of A2780 cell proliferation. The method, then:
Cultivated tumour cells (HeLa, human cervical tumour cells, ATCC CCL-2; NCI-H460, human non-small cell lung carcinoma cells, ATCC HTB-177; A2780, human ovarian carcinoma cells, ECACC #93112519; DU 145, hormone-independent human prostate carcinoma cells, ATCC HTB-81; HeLa-MaTu-ADR, multidrug-resistant human cervical carcinoma cells, EPO-GmbH Berlin; Caco-2, human colorectal carcinoma cells, ATCC HTB-37; B16F10, mouse melanoma cells, ATCC CRL-6475) were plated at a density of 5,000 cells/well (DU145, HeLa-MaTu-ADR), 3,000 cells/well (NCI-H460, HeLa), 2,500 cells/well (A2780), 1,500 cells/well (Caco-2), or 1,000 cells/well (B16F10) in a 96-well multititer plate in 200 μL of their respective growth medium supplemented 10% fetal calf serum. After 24 hours, the cells of one plate (zero-point plate) were stained with crystal violet (see below), while the medium of the other plates was replaced by fresh culture medium (200 μl), to which the test substances were added in various concentrations (0 μM, as well as in the range of 0.001-10 μM; the final concentration of the solvent dimethyl sulfoxide was 0.5%). The cells were incubated for 4 days in the presence of test substances. Cell proliferation was determined by staining the cells with crystal violet: the cells were fixed by adding 20 μl/measuring point of an 11% glutaric aldehyde solution for 15 minutes at room temperature. After three washing cycles of the fixed cells with water, the plates were dried at room temperature. The cells were stained by adding 100 μl/measuring point of a 0.1% crystal violet solution (pH 3.0). After three washing cycles of the stained cells with water, the plates were dried at room temperature. The dye was dissolved by adding 100 μl/measuring point of a 10% acetic acid solution. The extinction was determined by photometry at a wavelength of 595 nm. The change of cell number, in percent, was calculated by normalization of the measured values to the extinction values of the zero-point plate (=0%) and the extinction of the untreated (0 μm) cells (=100%). […]

Turning to `Cc1cc(CS(C)(=N)=O)cc(Nc2cc(-c3ccc(F)c4ccoc34)c(F)cn2)n1` (racemic) [Example 7, (rac)-5-Fluoro-4-(4-fluoro-1-benzofuran-7-yl)-N-{6-methyl-4-[(S-methylsulfonimidoyl)-methyl]pyridin-2-yl}pyridin-2-amine], the IC50 in test [1] was 6.3 nM.

For `CCc1cc(CS(C)(=N)=O)cc(Nc2cc(-c3ccc(F)c4ccoc34)c(F)cn2)n1` (racemic) [Example 8, (rac)-N-{6-Ethyl-4-[(S-methylsulfonimidoyl)methyl]pyridin-2-yl}-5-fluoro-4-(4-fluoro-1-benzofuran-7-yl)pyridin-2-amine], the IC50 in test [1] is 3.9 nM. Consider `CS(=N)(=O)Cc1cc(F)nc(Nc2cc(-c3ccc(F)c4ccoc34)c(F)cn2)c1` (racemic) [Example 1, (rac)-5-Fluoro-4-(4-fluoro-1-benzofuran-7-yl)-N-{6-fluoro-4-[(S-methylsulfonimidoyl)methyl]pyridin-2-yl}pyridin-2-amine], for which the IC50 in test [2] was found to be 11 nM; in test [1], 16 nM. On the same counts, the results for `CS(=N)(=O)Cc1cc(Nc2cc(-c3ccc(F)c4ccoc34)c(F)cn2)nc(C(F)(F)F)c1` (racemic) [Example 3, (rac)-5-Fluoro-4-(4-fluoro-1-benzofuran-7-yl)-N-{4-[(S-methylsulfonimidoyl)methyl]-6-(trifluoromethyl)pyridin-2-yl}pyridin-2-amine] are 10 nM and 6 nM. On the same counts, the results for `CS(=N)(=O)Cc1ccnc(Nc2cc(-c3ccc(F)c4ccoc34)c(F)cn2)c1` (racemic) [Example 5, (rac)-5-Fluoro-4-(4-fluoro-1-benzofuran-7-yl)-N-{4-[(S-methylsulfonimidoyl)methyl]pyridin-2-yl}pyridin-2-amine] are 29 nM and 18 nM.

These data come from US9770445B2, “Sulfoximine substituted 5-fluoro-N-(pyridin-2-yl)pyridin-2-amine derivatives and their use as CDK9 kinase inhibitors” (BAYER PHARMA AKTIENGESELLSCHAFT, priority 2013, dated 2017).
